Measurements taken from ChEMBL document CHEMBL2331398, “Synthesis and growth inhibition activity of fluorinated derivatives of tamoxifen” (2013).

Assays:
Format in all cases: functional
HT-29 = assay: Growth inhibition of human HT-29 cells
M21 = assay: Growth inhibition of human M21 cells
MCF7 = assay: Growth inhibition of estrogen-dependent human MCF7 cells
MDA-MB-231 = assay: Growth inhibition of estrogen-independent human MDA-MB-231 cells

SMILES	GI50 (HT-29) [µM]	GI50 (M21) [µM]	GI50 (MCF7) [µM]	GI50 (MDA-MB-231) [µM]
CN(C)CCOc1ccc(/C(=C(/F)c2ccccc2)c2ccc(O)cc2)cc1	8.7	4.4	3.6	7.3
CN(C)CCOc1ccc(/C(=C(/F)c2ccccc2)c2ccccc2)cc1	10.5	13.5	10.4	22.2
F/C(=C(\c1ccccc1)c1ccc(OCCN2CCCCC2)cc1)c1ccccc1	8.7	5.8	6.5	14.4
Oc1ccc(/C(=C(\F)c2ccccc2)c2ccc(OCCN3CCCCC3)cc2)cc1	8.9	15.9	8.4	25.8
OCc1ccc(/C(=C(\F)c2ccccc2)c2ccc(OCCN3CCCCC3)cc2)cc1	6.9	5.9	7.4	12.6
Oc1ccc(C(=C(F)c2cccc(C(F)(F)F)c2)c2ccccc2)cc1	59.8	89.6	71.7	105
Oc1ccc(C(=C(F)c2ccccc2)c2ccccc2)cc1 (mixture of isomers)	32.8	53	21.3	46.9
O=Cc1ccc(/C(=C(\F)c2ccccc2)c2ccc(OCCN3CCCCC3)cc2)cc1	5.9	4.2	5.6	10.6
CC/C(=C(\c1ccccc1)c1ccc(OCCN(C)C)cc1)c1ccccc1 [TAMOXIFEN]	9.5	11		18.8
Oc1ccc(/C(=C(\F)c2ccccc2)c2ccc(OCCN3CCCC3)cc2)cc1	8.9	6.8	5.6	10.6
F/C(=C(/c1ccccc1)c1ccc(OCCN2CCCCC2)cc1)c1ccccc1	7.3	5.6	8.8	12.5
F/C(=C(\c1ccccc1)c1ccc(OCCN2CCCC2)cc1)c1ccccc1	40.3	44	41.7	> 100
